Assay results from patent publication US10093650B2, “Tetrazolone-substituted dihydropyridinone MGAT2 inhibitors” (BRISTOL-MYERS SQUIBB COMPANY, priority 2014, dated 2018).

Target: human MGAT-2 (Homo sapiens (Human), UniProt Q3SYC2)
Assay: MGAT LCMS Assay (human MGAT2)
Assay type: biochemical
Details: human MGAT-2 membranes expressed in Sf9 cells; 100 μM 2-oleoylglycerol, 15 μM oleoyl-coenzyme A; LC/MS readout; read-out: h-MGAT LCMS IC50
Procedure: The MGAT enzyme reactions were performed in Corning FALCON® 96-well polypropylene plates, in a total volume of 60 μL of 50 mM potassium phosphate buffer pH 7.4, containing a final concentration of 100 μM 2-oleoylglycerol, 15 μM oleoyl-coenzyme A and […] human or mouse MGAT-2 or […] rat recombinant MGAT-2 membranes expressed in Sf9 cells. Assay plates were run through a fully automated robotics system and shaken for 5 seconds every minute for a total 10 minutes. The reactions were then quenched with 120 μL of ice cold methanol containing 1 μg/mL 1,2-distearoyl-rac-glycerol as the internal standard. Plates were shaken for 2 minutes and spun down to remove protein precipitation. After the spin, samples were transferred to LC/MS compatible PCR plates. For LC/MS analysis, a ThermoFisher Surveyor pump, utilizing a Waters SYMMETRY® C8, 50×2.1 mm column, was used for the chromatography of enzyme products. The buffer system consists of 0.1% formic acid in water with a mobile phase consisting 0.1% formic acid in methanol. The shallow gradient is 90-100% mobile phase in 0.2 min with a total run time of 2.3 min. The first 0.5 minutes of each injection was diverted to waste to eliminate the presence of Phosphate buffer in the enzymatic reaction. The column was run at 0.6 mL/min and a temperature of 65° C. Mass spectrometry analysis of the samples was performed on a ThermoFisher Quantum Triple quad utilizing APCI (+) as the mode of ionization. Data was acquired in Single Ion Monitoring (SIM) mode analyzing Diolein=m/z 603.6 (PRODUCT) and 1,2-distearoyl-rac-glycerol (IS)=m/z 607.6. The ratio of Diolein to internal standard (Peak Area Ratio) is utilized to calculate IC50 values.
The exemplified Examples disclosed below were tested in the MGAT2 in vitro assays described above and were found having MGAT2 inhibitory activity. Table 1 below lists human MGAT2 IC50 values measured for the following examples.

Sequence of human MGAT-2 (Q3SYC2 whole entry): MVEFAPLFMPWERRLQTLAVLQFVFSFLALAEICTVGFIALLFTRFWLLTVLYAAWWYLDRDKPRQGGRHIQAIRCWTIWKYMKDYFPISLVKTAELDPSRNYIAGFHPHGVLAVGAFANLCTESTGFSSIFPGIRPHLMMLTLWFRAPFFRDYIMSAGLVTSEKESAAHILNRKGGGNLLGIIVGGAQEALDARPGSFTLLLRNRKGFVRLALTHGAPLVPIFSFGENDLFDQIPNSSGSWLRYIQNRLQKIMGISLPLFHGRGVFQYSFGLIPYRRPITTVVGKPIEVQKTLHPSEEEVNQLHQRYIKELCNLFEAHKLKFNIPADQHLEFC

SMILES	IC50 [nM]
CC(C)n1ccc(C2=C(n3nn[nH]c3=O)C(=O)N[C@@](c3ccc(CCCCC(F)(F)F)cc3F)(C(F)(F)F)C2)n1 [Example 10]	36
O=C1N[C@@](c2cnn(CCCCCCC(F)(F)F)c2)(C(F)(F)F)CC(c2ccc3c(c2)CCCC3)=C1n1nn[nH]c1=O [Example 17]	5
CC(=O)c1ccc(C2=C(n3nn[nH]c3=O)C(=O)N[C@@](c3ccc(OCCCC(F)(F)F)cc3)(C(F)(F)F)C2)s1 [Example 18]	8
CC(C)Cn1ccc(C2=C(n3nn[nH]c3=O)C(=O)N[C@@](c3ccc(OCCCC(F)(F)F)cc3F)(C(F)(F)F)C2)n1 [Example 15]	145
CCc1ccc(C2=C(n3nn[nH]c3=O)C(=O)N[C@H](c3ccc(OCCCC(F)(F)F)cc3Cl)C2)s1 [Example 24]	36
CCn1ccc(C2=C(n3nn[nH]c3=O)C(=O)N[C@@](c3ccc(OCCCC(F)(F)F)cc3F)(C(F)(F)F)C2)n1 [Example 9]	108
O=C1N[C@@](c2ccc(OCCCC(F)(F)F)cc2F)(C(F)(F)F)CC(c2ccn(CC3CC3)n2)=C1n1nn[nH]c1=O [Example 14]	5
O=C1N[C@@](c2ccc(OCCCC(F)(F)F)cc2F)(C(F)(F)F)CC(c2ccn(C3CC3)n2)=C1n1nn[nH]c1=O [Example 7]	173
CCc1ccc(C2=C(n3nn[nH]c3=O)C(=O)N[C@@](c3ccc(OCCCC(F)(F)F)cc3)(C(F)(F)F)C2)s1 [Example 23]	60
CC(C)Cn1ccc(C2=C(n3nn[nH]c3=O)C(=O)N[C@@](c3ccc(CCCCC(F)(F)F)cc3F)(C(F)(F)F)C2)n1 [Example 12]	34
O=C1N[C@@](c2ccc(OCCCC(F)(F)F)cc2F)(C(F)(F)F)CC(c2ccn(C3CCC3)n2)=C1n1nn[nH]c1=O [Example 8]	30
O=C1N[C@@](c2ccc(CCCCC(F)(F)F)cc2F)(C(F)(F)F)CC(c2ccn(CC3CC3)n2)=C1n1nn[nH]c1=O [Example 11]	9
O=C1N[C@@](c2ccc(OCCCCCC(F)(F)F)cc2)(C(F)(F)F)CC(c2ccc(OC(F)F)cc2)=C1n1nn[nH]c1=O [Example 4]	17
COc1ccc(C2=C(n3nn[nH]c3=O)C(=O)N[C@@](c3ccc(OCCCC(F)(F)F)cc3)(C(F)(F)F)C2)cc1 [Example 3]	340
O=C1N[C@@](c2ccc(OCCCC(F)(F)F)cc2F)(C(F)(F)F)CC(c2ccc(C(F)F)cc2)=C1n1nn[nH]c1=O [Example 21]	10
CC(O)c1ccc(C2=C(n3nn[nH]c3=O)C(=O)N[C@@](c3ccc(OCCCC(F)(F)F)cc3)(C(F)(F)F)C2)s1 (stereo partly shown) [Example 19]	10
Cc1ccc(C2=C(n3nn[nH]c3=O)C(=O)N[C@@](c3ccc(OCCCC(F)(F)F)cc3)(C(F)(F)F)C2)cc1 [Example 1, (S)-3-(5-Oxo-4,5-dihydro-1H-tetrazol-1-yl)-4-(p-tolyl)-6-(4-(4,4,4-trifluorobutoxy)phenyl)-6-(trifluoromethyl)-5,6-dihydropyridin-2(1H)-one]	27
O=C1N[C@@](c2ccc(CCCCC(F)(F)F)cc2)(C(F)(F)F)CC(c2ccn(CC3CC3)n2)=C1n1nn[nH]c1=O [Example 20]	3
CC(C)n1ccc(C2=C(n3nn[nH]c3=O)C(=O)N[C@@](c3ccc(OCCCC(F)(F)F)cc3F)(C(F)(F)F)C2)n1 [Example 6]	137
Cc1ccc(C2=C(n3nn[nH]c3=O)C(=O)N[C@@](c3ccc(OCCCCCC(F)(F)F)cc3)(C(F)(F)F)C2)cc1 [Example 2]	5
CCn1ccc(C2=C(n3nn[nH]c3=O)C(=O)N[C@@](c3ccc(CCCCC(F)(F)F)cc3F)(C(F)(F)F)C2)n1 [Example 13]	84
COc1ccc(C2=C(n3nn[nH]c3=O)C(=O)N[C@@](c3ccc(OCCCCCC(F)(F)F)cc3)(C(F)(F)F)C2)cc1 [Example 5]	71
